Results on one compound are retold here after patent US20210340178A1, “NONAPEPTIDE PREVENTING INCREASED HYPERPERMEABILITY OF VASCULAR ENDOTHELIUM” (FEDERALNOYE GOSUDARSTVENNOE BUDGETNOE UCHREZHDENIE …, priority 2018, published 2021).

The assay concerns myosin regulatory light chain (RLC) phosphorylation in EA.hy926 endothelial cells. Kind of assay: Thrombin-induced myosin RLC phosphorylation in endothelial cells (immunoblotting). In kind it is cell-based. The conditions noted are these: peptide 100 μM, 1 hr; thrombin 100 nM, 20 min. As for the experimental part: FIG. 4. Inhibition of the thrombin-induced RLC phosphorylation in EA.hy926 endothelial cells by PIK2, PIK7 ([D-Lys^12]-MLC11-19), or MLC11-19 MLCK peptide inhibitors. Inhibitors were added up to 100 μM, n=3-5. p<0.05 for PIK2, PIK7 vs control (0, 20 min). p<0.05 for PIK2 vs PIK7 (0, 20 min).
Inhibitory effects of the claimed peptide (PIK7), its prototype (PIK2), and analogue (MLC11-19) were compared in an assay of myosin regulatory light chain (RLC) phosphorylation in vitro as described in Example 4.
Antagonistic effects of MLCK peptide inhibitors on the thrombin-mediated RLC phosphorylation in EA.hy926 endothelial cells were tested as follows. The cells were grown in 35-mm dishes in DMEM at 37° C. and the 5% CO2 atmosphere until the monolayer formed. Then, the cells were serum-starved while simultaneously incubated with 100 μM MLCK inhibitors at 37° C., 5% CO2 for 1 hr (control, 0 min). Next, the cells were stimulated with 100 nM thrombin for 20 min and collected on ice, i.e. the medium was decanted, the cells were washed with cold PBS and lysed with 100 μL of Laemmli denaturing electrophoresis buffer. The sample proteins were separated by SDS-PAGE and proceeded to immunoblotting with anti-total, anti-monophosphorylated, and anti-diphosphorylated RLC. […]

Entries after “also recorded” stand apart in the source; their conditions may differ. Non-standard residues stand in square brackets, D forms with d. Residues, ends and D or L forms follow the SMILES beside them.

In the case of `C[C@H](NC(=O)[C@H](C)NC(=O)[C@H](CCCNC(=N)N)NC(=O)[C@@H](CCCCN)NC(=O)[C@@H](N)CCCCN)C(=O)N[C@@H](CCCNC(=N)N)C(=O)N[C@@H](C)C(=O)N[C@H](C(=O)N[C@@H](CO)C(N)=O)[C@@H](C)O` [PIK7, H-Lys-D-Lys-Arg-Ala-Ala-Arg-Ala-Thr-Ser-NH2] (H-K[dK]RAARATS-NH2), the “inhibition of thrombin-induced RLC phosphorylation” value is “inhibited myosin RLC phosphorylation in endothelial cells with efficacy higher than that of either the prototype, PIK2, or the analogue, MLC11-19; also recorded: inhibits RLC phosphorylation in endothelial cells and its efficacy is superior to both the prototype, PIK2, and the analogue, MLC11-19”.
